Values quoted from earlier work in patent US6306864A, “Atropisomers of 3-aryl-4(3H)-quinazolinones and their use as AMPA-receptor antagonists” (Pfizer Inc., priority 2000, dated 2001).

Key:
[1] = tested on: global and focal ischemic damage; details: focal and global ischemia models
[2] = tested on: rat global ischemia models

SMILES	prevention of global and focal ischemic damage [1]	neuroprotection in rat global ischemia models [2]
NS(=O)(=O)c1cccc2c1c([N+](=O)[O-])cc1[nH]c(=O)c(=O)[nH]c12 [NBQX, 2,3-dihydroxy-6-nitro-7-sulfamoylbenzo[f-]quinoxaline]	effective in preventing global and focal ischemic damage	–
CC1=NN=C(c2ccc(N)cc2)c2cc3c(cc2C1)OCO3 [GKYI 52466]	–	effective neuroprotective agent
